The values that follow come from the NIST ThermoML archive (doi:10.1021/acs.jced.6b00334).

Numbers after ± are expanded uncertainties.

The nature of data set [1]: Solid-liquid equilibrium temperature. The conditions noted are these: 101 kPa; Crystal; DTA.
A short description of data set [2]: Molar enthalpy of transition or fusion. The conditions noted are these: Crystal; DSC.

On to `CCc1ccc2c(c1)C(=O)c1ccccc1C2=O` [2-ethyl-9,10-anthracenedione], for which, in data set [1], the Solid-liquid equilibrium temperature was found to be 384.15 ± 0.25 K. The “Molar enthalpy of transition or fusion” value in data set [2] was found to be 18.8 ± 5 kJ/mol.
